Experimental data: PMC5407577, “Functional and genetic evidence that nucleoside transport is highly conserved in Leishmania species: Implications for pyrimidine-based chemotherapy” (International Journal for Parasitology: Drugs and Drug …, 2017)

Columns and labels:
LmexUU1 = format: cell-based, Leishmania mexicana
Experimental: (§1) Using the standard uptake technique as described for T. brucei and Leishmania species ([Wallace et al., 2002], [Al-Salabi and De Koning, 2005], [Gudin et al., 2006]), the dose- or time-dependent uptake of radiolabeled permeants was investigated.
(§2) Briefly, cells in the mid-to-late logarithmic stage of growth were harvested by centrifugation for 10 min at 1500×g. The cells were washed twice with transport assay buffer (AB: 33 mM HEPES, 98 mM NaCl, 4.6 mM KCl, 0.55 mM CaCl2, 0.07 mM MgSO4, 5.8 mM NaH2PO4, 0.3 mM MgCl2, 23 mM NaHCO3, 14 mM glucose, pH 7.3), resuspended at a density of 10^8 cells ml^−1 in AB, and left for 20–30 min at room temperature to recover from centrifugation stress. One hundred microliters of cell suspension was incubated at ambient temperature for a predetermined time with 100 μl radiolabeled test compound, in the presence or absence of unlabeled substrate or other competitive inhibitors. The incubation was terminated by the addition of ice-cold stop solution (AB containing saturating levels, usually 10 mM, of unlabeled permeant) and centrifugation through oil for 1 min at 13,000 × g. […] Radioactivity was determined by liquid scintillation counting in a Beckman LS6000 TA scintillation counter. Saturation data, inhibition data, and time courses were plotted to equations for linear or non-linear regression (hyperbolic or sigmoid curves), as appropriate. All experiments were performed in triplicate and on at least three independent occasions.

LmajNT1 [1] = experiment: [3H]-thymidine uptake by L. major promastigotes; format: cell-based, Leishmania major
Experimental: as §1, §2
Subsequent experiments were performed with a 5 min incubation time.

LmajUUT1 = experiment: [3H]-uridine uptake by L. major promastigotes, high-affinity uracil-sensitive component; format: cell-based, Leishmania major; details: inhibition of 0.25 μM [3H]-uridine uptake
Experimental: as §1, §2

LmajNT1 [2] = experiment: [3H]-uridine uptake by L. major promastigotes, low-affinity component; format: cell-based, Leishmania major; details: inhibition of 0.25 μM [3H]-uridine uptake
Experimental: as §1, §2

LmexNT1 = format: cell-based, Leishmania mexicana; details: inhibition of 0.25 μM [3H]-uridine uptake in the presence of 1 mM uracil
Experimental: as §1, §2

[3] = tested on: L. major promastigotes WT; experiment: Alamar blue drug sensitivity assay, L. major WT; format: cell-based, Leishmania major; details: Leishmania major, 72 h, WT promastigotes, 72 h + 48 h with dye; n ≥ 4; read-out: EC50
Experimental: (§3) Sensitivity assays of Leishmania strains to various drugs using the viability dye resazurin (Alamar Blue) (Sigma-Aldrich) were performed using a protocol adapted from [Räz et al. (1997)], as described ([Al-Salabi et al., 2003], [Gould et al., 2008]). Pentamidine and diminazene were used as non-nucleoside controls and were obtained from Sigma-Aldrich, as were many purines, pyrimidines, and analogs, with the exceptions of 2-thiouridine and 4-thiouridine (TriLink BioTechnologies, San Diego, CA); 5′-deoxyuridine, and 2′-3′-dideoxyuridine (Carbosynth, Compton, UK); 5-fluoro-2′-deoxyuridine (Fluka); and 2-thiouracil (ICN Biomedicals, Cambridge, UK). A preliminary promastigote culture was diluted to a density of 2 × 10^6 cells/ml, of which 100 μl was added to wells of 96-well plates pre-loaded with 100 μl of doubling dilutions of test compounds, resulting in a final density of 1 × 10^6 cells/ml; the dilutions were over 2 rows of the plate (23 concentrations), with the last well containing only medium and serving as the no-drug control. The plates were incubated at 25 °C for 72 h before adding the Alamar Blue dye (20 μl of 12.5 mg resazurin sodium salt (Sigma) in 100 ml phosphate buffered saline (PBS; pH 7.4)). Since Leishmania parasites metabolize the Alamar Blue dye slower than trypanosomes ([Gould et al., 2008]), the cells were incubated with the dye for a further period of 48 h before measuring the fluorescence, using a FLUOstar Optima fluorimeter (BMG Labtech) at wavelengths of 544 nm for excitation and 620 nm for emission. […] Each experiment was performed independently at least 4 times; statistical significance was determined using Student's unpaired t-test.

[4] = tested on: L. mexicana promastigotes; experiment: metabolomic analysis of treated L. mexicana promastigotes; format: cell-based, Leishmania mexicana; details: 100 μM, 8 h
Experimental: (§4) Metabolomics analysis of the Leishmania promastigotes was undertaken in triplicate, exactly as described ([Ali et al., 2013a]). Briefly, cells were grown to log phase stage, resuspended at 2 × 10^6 cells/ml in 50 ml HOMEM/FBS and incubated 8 h with 100 μM of test compound (standard conditions) before transfer to a 50-ml centrifuge tube for instantaneous cooling (dry ice/ethanol bath, 4 °C) and centrifugation (2500 rpm, 10 min, 4 °C). The pellet was lysed with 200 μl of chloroform/methanol/water (1:3:1 v/v/v) containing mass spectrometry standards, and vigorous mixing (1 h, 4 °C); cell debris was removed by centrifugation and the metabolite extracts were stored in HPLC vials at −80 °C. Control samples were prepared in parallel and included untreated cells, unused growth medium, test compound solution and extraction solvent blanks. The analysis used a hydrophilic interaction liquid chromatography (HILIC-LC) fitted with a zwitterionic ZIC-pHILIC column (Merck Sequant), coupled to high resolution mass spectrometry (MS) using a Thermo Q-Exactive, and metabolomic data outputs were analyzed using the IDEOM application (http://mzmatch.sourceforge.net/ideom.php) with default parameters ([Creek et al., 2012]) exactly as described ([Ali et al., 2013a]). The lower limit of detection was set to 500 intensity units for all reported metabolites, in order to prevent spurious identification of low level signals.
(§5) The mechanism of action of the fluorinated pyrimidines was investigated using a metabolomics approach, where promastigotes of L. mexicana and L. major were incubated for 8 h with 100 μM of either 5-FU, 5F-2′dUrd or 5F-Urd prior to metabolite extraction and mass spectrometric analysis as described ([Ali et al., 2013a], [Alkhaldi et al., 2015]). These conditions were chosen to allow for significant metabolite accumulation while not affecting cell viability or growth rate, which could broadly affect metabolite levels.

Lmaj5F2′dURes = experiment: microbe, parasite or virus in culture; format: cell-based, Leishmania major
Experimental: as §3

Lmaj5FURes = experiment: microbe, parasite or virus in culture; format: cell-based, Leishmania major
Experimental: as §3

[5] = tested on: L. mexicana promastigotes WT; experiment: Alamar blue drug sensitivity assay, L. mexicana WT; format: cell-based, Leishmania mexicana; details: Leishmania mexicana, 72 h, WT promastigotes, 72 h + 48 h with dye; n ≥ 4; read-out: EC50
Experimental: as §3

L. major promastigotes = experiment: metabolomic analysis of treated L. major promastigotes; format: cell-based, Leishmania major; details: 100 μM, 8 h
Experimental: as §4, §5

Lmex5FURes = experiment: microbe, parasite or virus in culture; format: cell-based, Leishmania mexicana
Experimental: as §3

Lmex5F2′dURes = experiment: microbe, parasite or virus in culture; format: cell-based, Leishmania mexicana
Experimental: as §3

[6] = n = 3, SEM, untreated: not detected (<500)

For `O=c1ccn([C@H]2C[C@H](O)[C@@H](CO)O2)c(=O)[nH]1` [2′-deoxyuridine], the Ki (LmexUU1; inhibition of [3H]-uracil uptake, 4 min) was 9.3 ± 2.6 µM, the “maximal inhibition of [3H]-uracil transport” value (LmexUU1; n = 3) was “approximately 85%” and the Ki (LmajNT1 [1]; inhibition of 0.25 μM [3H]-thymidine uptake (total LmajNT1.1 + LmajNT1.2), 5 min) was 112 ± 17 µM. The Ki (LmajUUT1) was 24.9 ± 8.6 µM and the Ki (LmajNT1 [2]) was 24.9 ± 8.6 µM.

With `O=c1[nH]c(=O)n([C@H]2C[C@H](O)[C@@H](CO)O2)cc1F` [5F-2′dUrd, 5-Fluoro-2′-deoxyuridine] the Ki (LmexNT1) was 6.99 ± 0.11 µM, the EC50 [3] was ~1.5 µM and the dTTP intensity ([4]; detection limit 500 units (Fig. 13F)) was “Not detectable”. For the same compound, the dCMP peak intensity [4, 6] was 6006 ± 3089 arbitrary units, the dUrd peak intensity ([4]; untreated: 304 ± 155) was 5414 ± 717^∗ arbitrary units and the dADP peak intensity ([4]; untreated: 1458) was 8367 ± 1844^∗ arbitrary units. The dAdo peak intensity ([4]; untreated: 2585 ± 811) was 5412 ± 1699 arbitrary units, the dCDP peak intensity ([4]; untreated: not detected) was 4451 ± 1188^∗ arbitrary units and the dCTP peak intensity ([4]; untreated: not detected) was 1569 ± 244 arbitrary units. For the same compound, the EC50 (Lmaj5F2′dURes; Leishmania major) was 381 ± 83 µM, the “RF (Resistance Factor = IC50 (resistant clone)/IC50 (WT))” value (“RF” for short) (Lmaj5F2′dURes; Lmaj5F2′dURes vs L. major WT) was 224 and the EC50 (Lmaj5FURes; Leishmania major) was 6.1 ± 0.5 µM. For the same compound, the “RF” value (Lmaj5FURes; Lmaj5FURes vs L. major WT) was 3.6, the EC50 [5] was ~1.5 µM and the dCMP peak intensity (L. major promastigotes; [6]) was “not detected”. The dUrd peak intensity (L. major promastigotes; untreated: 712 ± 105) was 7615 ± 1236^∗ arbitrary units, the dCTP peak intensity (L. major promastigotes; untreated: 995 ± 109) was 7036 ± 1684 arbitrary units and the dAdo peak intensity (L. major promastigotes; untreated: 2992 ± 173) was 14181 ± 3275 arbitrary units. For the same compound, the dAMP peak intensity (L. major promastigotes; untreated: 6192 ± 910) was 14740 ± 2815 arbitrary units, the dADP peak intensity (L. major promastigotes; untreated: not detected) was 6493 ± 3261 arbitrary units and the dCDP peak intensity (L. major promastigotes; untreated: not detected) was 6617 ± 188^∗∗∗ arbitrary units. The Ki (LmajNT1 [1]) was 29.7 ± 2.1 µM, the EC50 (Lmex5FURes; Leishmania mexicana) was 1.5 ± 0.2 µM and the “RF” value (Lmex5FURes; Lmex5FURes vs L. mexicana WT) was 1.07. For the same compound, the EC50 (Lmex5F2′dURes; Leishmania mexicana) was > 5000 µM and the “RF” value (Lmex5F2′dURes; Lmex5F2′dURes vs L. mexicana WT) was >3500.
